Measurements published in US20250381176A1, “SCD1 INHIBITORS FOR TREATING LIVER DISEASE” (MODULATION THERAPEUTICS, INC., priority 2022, published 2025).
Entries after “also recorded” stand apart in the source; their conditions may differ.

What was measured:
[1] = tested on: SCD1 mRNA; settings: cited from earlier work
[2] = molecular target: T1, SCD1 (Homo sapiens, UniProt O00767); assay: SCD1 enzyme inhibition (conversion of 13C18-stearoyl CoA to 13C18-oleoyl, LC-MS/MS, liver microsomes); assay type: biochemical
T1 construct: conversion of ^13C18-stearoyl CoA to ^13C18-oleoyl using LC-MS/MS in liver microsomes; from tissue; host or cells: liver microsomes
T1 sequence (O00767 1-359): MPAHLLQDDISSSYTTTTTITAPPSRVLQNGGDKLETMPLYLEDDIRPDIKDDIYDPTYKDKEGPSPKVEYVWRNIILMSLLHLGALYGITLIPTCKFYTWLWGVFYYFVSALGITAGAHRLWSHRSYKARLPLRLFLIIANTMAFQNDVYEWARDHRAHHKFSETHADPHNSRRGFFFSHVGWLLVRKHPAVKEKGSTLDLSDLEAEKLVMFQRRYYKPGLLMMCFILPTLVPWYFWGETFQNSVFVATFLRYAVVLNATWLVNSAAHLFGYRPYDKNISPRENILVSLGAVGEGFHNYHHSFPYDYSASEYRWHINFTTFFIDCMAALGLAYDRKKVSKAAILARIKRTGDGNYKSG

[3] = tested on: known kinases; assay: Off-target reactivity with kinases; assay type: biochemical
[4] = tested on: C57BL6/J male mice fed on a Western Diet; assay: Western Diet-induced liver steatosis in mice, Compound 1 at 2 mg/kg IP for 10 days; assay type: in vivo
Experimental: The study was performed with C57BL6/J male mice, placed on a Western Diet for 4 months, and treated for 10 days IP with Compound 1 (2 mg/kg−N=3; *P<0.05)

[5] = Oral PK in mice (Table 1); assay type: in vivo; settings: mouse, plasma, C57BL/6 mice, 10 mg/kg oral gavage
Experimental: Serum chemistry and histochemical analysis is done for both the Western Diet and MCD mouse models. Body weight and Echo-MRI is used to determine lean muscle, fat, and water content of the mice. At the end of the study, the animals are fasted overnight, and blood samples are collected for serum chemistry. A full panel of liver and metabolite biomarkers are assessed. This standard panel includes triglycerides and total cholesterol, triglycerides (TG), ALP, ALT, AST, Creatinine kinase, amylase, lipase, total bilirubin, LDH, as well as calcium, bicarbonate, potassium and sodium. Liver function tests from this panel include Aspartate aminotransferase level (AST), Alanine aminotransferase level […], GGT, Apolipoprotein, Glucose levels, and Alkaline Phosphatase (ALP), Proc-3, GAL-3, YKL-40, CK-18 and Caspase cleaved (MN-65, MN-30). Additionally, insulin, leptin and adiponectin levels are assessed as part of validation of models.
Compound 1 quantification from mouse plasma is performed using LC-MS/MS on ExionLC system equipped with Kinetex XB-C18, 2.1×50 mm (Phenomenex 00B-4496-AN) column coupled with AB Sciex 5500 QTrap instrument (equipped with TurboIonspray ionization source and Analyst software), with Acetonitrile/water/0.1% v/v formic acid as mobile phase. Blood samples collected are centrifuged at 1300 g, 2-8° C., ≥10 minutes and the collected plasma are stored either on ice (less than 1 hour) or at −80° C. until further processing. Predetermined quantities of plasma are vortexed with ice-cold acetonitrile to precipitate the protein content and centrifuged at 1300 g, 2-8° C., ≥10 minutes. Supernatant is taken in a labelled vial and evaporated at 40° C. under a gentle stream of nitrogen. The precipitates are reconstituted in LC-MS grade methanol and centrifuged at 1300 g, 2-8° C., ≥10 minutes. The supernatant is sampled for LC-MS/MS analysis. The concentration of Compound 1 is estimated by standard curve developed from plasma standards spiked with deuterium labeled Compound 1 as internal standard. Deuterium labeled Compound 1 is on-hand. In some embodiments, deuterium labeled Compound 1 has the following structure: […]

[6] = Oral PK in rats (Table 1); assay type: in vivo; settings: plasma, Sprague Dawley rat, 12.5 mg/kg oral gavage
[7] = Oral PK in dogs (Table 1); assay type: in vivo; settings: dog, plasma, canine, 20 mg/kg oral gavage
[8] = Non-GLP pharmacokinetic (PK) and toxicokinetic (TK) studies; assay type: in vivo, mice, rats and dogs
[9] = Oral tolerability in male and female rats; assay type: in vivo
[10] = 14-day repeat oral dosing toxicity/toxicokinetics in dogs; assay type: in vivo
Experimental: Healthy beagles (Canis lupis familiaris) were dosed daily (oral gavage) for 14 days, and blood was collected on day 15.
A dosing regimen has been determined for Compound 1. Single dose and 7-day dosing non-GLP toxicity has been performed in rats and dogs and GLP toxicity in dogs 14 days repeat dosing. […] Dose conversion has been done via allometry based on body surface area.
These issues were attributed to atrophy of the Meibomian gland (the specialized sebaceous gland of the eyelid—see, e.g., FIG. 6). […] Mitigation the sequelae of events that occur due to dry eye is achieved by prophylactic administration of lipid eye drops and clinical eye exam every 14 days during a clinical trial.

[11] = meta-analysis, off-label use; cited from earlier work
[12] = Compound 1 alone, Western Diet mice
[13] = 4 hour, read-out: Drug in Plasma, 4 hour
[14] = 8 hour, read-out: Drug in Plasma, 8 hour
[15] = 24 hour, read-out: Drug in Plasma, 24 hour

For `CCCCCCCCCCCCCCCCCCCC(=O)N[C@H]1CC[C@@]2(C)[C@@H](C1)C[C@@H](O)[C@@H]1[C@@H]2C[C@H](O)[C@]2(C)[C@@H]([C@H](C)CCC(=O)O)CC[C@@H]12` [Aramchol], the “SCD1 mRNA expression levels” value [1] is listed as “reduces expression of the mRNA for SCD1; also recorded: downregulates SCD1; also recorded: reduces SCD1 mRNA expression levels”.
For `CNC(=O)c1ccnc(NC(=O)N2CCC(Oc3ccccc3Cl)CC2)c1` [Compound 1], the “mode of SCD1 inhibition” value [2] was “inhibits enzymatic activity competitively; also recorded: competitive inhibition; also recorded: reversible”, the IC50 ([2]; 13C18-stearoyl CoA to 13C18-oleoyl, LC-MS/MS, liver microsomes, read-out: IC50 for blocking SCD1 enzymatic activity) was 1.9 nM and the “off-target reactivity with kinases” value [3] was “does not significantly react off-target with any known kinases”. The plasma glucose [4, 12] was “does not reduce”, the plasma triglycerides [4, 12] was “does not reduce” and the liver steatosis ([4]; Western Diet 4 months, 2 mg/kg IP 10 days, H&E quantification, N=3, 2 mg/kg) was “reversal of liver steatosis; also recorded: significant reduction in liver steatohepatitis; also recorded: significantly reduced liver steatosis; also recorded: reduces liver steatosis”. For the same compound, the “liver function plasma markers / serum chemistry (ALP and BUN levels)” value ([4]; Western Diet 4 months, 2 mg/kg IP 10 days, N=3, 2 mg/kg) was “Significant attenuation of liver damage; also recorded: improved liver function plasma markers; also recorded: significantly improves liver function tests”, the “efficacious dose for NASH” value ([4]; preliminary data) was 2 mg/kg and the AUC(0-t) [5] was 20900 ng·h/mL. The Cmax [5] was 4320 ng/mL, the concentration at 4 h [5, 13] was ~3000 ng/mL and the concentration at 8 h [5, 14] was ~900 ng/mL. It also gave a concentration at 24 h [5, 15] of ~25 ng/mL, an AUC(0-t) [6] of 96400 ng·h/mL and a Cmax [6] of 11600 ng/mL. The Tmax [6] was 30 min, the concentration at 4 h [6, 13] was 8920 ng/mL and the concentration at 8 h [6, 14] was 4130 ng/mL. The concentration at 24 h [6, 15] was 437 ng/mL, the AUC(0-t) [7] was 90500 ng·h/mL and the Cmax [7] was 12500 ng/mL. The Tmax [7] was 60 min, the concentration at 4 h [7, 13] was 8310 ng/mL and the concentration at 8 h [7, 14] was 3200 ng/mL. For the same compound, the concentration at 24 h [7, 15] was 212 ng/mL, the oral bioavailability ([8]; in vivo, po) was “good oral bioavailability; also recorded: favorable oral bioavailability; also recorded: orally bioavailable” and the tolerability ([8]; mice, rats and dogs) was “well-tolerated”. The “induction of liver enzymes” value ([9]; oral 50-300 mg/kg) was “does not induce liver enzymes”, the tolerability ([9]; oral dose range 50-300 mg/kg) was “well tolerated” and the “chemistry, urinalysis, electrocardiograph and hematological parameters vs vehicle control” value ([10]; 14-day GLP dog study) was “no substantial differences”. The “reversibility of eye damage” value ([10]; 14-day recover dogs (2M/2F)) was “Most of the damage to eyes was reversible”, the WBC ([10]; beagles, daily oral gavage 14 days) was “no dramatic changes” and the “liver enzymes or cholesterol levels” value ([10]; beagles, daily oral gavage 14 days, blood on day 15) was “no significant changes”. The MTD at 14 days ([10]; both sexes, beagle, dog, in vivo, dogs, oral, read-out: maximum tolerated dose (MTD)) was 20 mg/kg, the “therapeutic window for the treatment of NASH” value ([10]; dog, in vivo) was “wide therapeutic window” and the ophthalmic observations ([10]; dogs at the maximum tolerated doses) was “inflammation of the ocular surface with occasional corneal ulceration and low intraocular pressure”. The dose limiting toxicity ([10]; dogs, 14-day repeat dosing, high doses) was “ocular inflammation”.
In the case of `CCc1ccc(CCOc2ccc(CC3SC(=O)NC3=O)cc2)nc1` (stereo not drawn) [pioglitazone], the “efficacy in human NAFLD” value [11] is listed as “efficacious in human NAFLD”.
